Test results published in patent US20250002467A1, “DESIGN, SYNTHESIS AND MECHANISMS OF ANTICANCER ACTIVITY OF NEW ACETYLATED 5-AMINOSALICYLATE-THIAZOLINONE HYBRID DERIVATIVES” (University of Sharjah, priority 2023, published 2025).
“Also recorded” adds a separate entry of the source.

Experiments:
[1] = test system: MCF7, HCT-116, HeLa and A549 cells; test: Annexin V/PI apoptosis analysis; type: cell-based; details: for early apoptotic cell population (Annexin V+/PI-): 24 and 48 hours
Procedure: The cells were collected at 12, 24 and 48 hours after treatment with […] of HH32 and HH33 compounds. The detection of early and late apoptotic cell death was done using FITC Annexin V Apoptosis Detection Kit (Becton Dickenson, California, USA) according to the manufacturer's protocol. The data were analyzed by BD Accuri C6 flow cytometer (Becton Dickenson, New Jersey, USA).

U87 = test: SRB cytotoxicity assay, U87; type: cell-based; details: for IC50: U87, SRB, mean ± SEM
Text: (§1) Eight different cancer cell lines were acquired from the Radiobiology and Experimental Radio Oncology lab, University Medical Center, Hamburg University, Hamburg, Germany. MCF7, MDA-MB-231 (breast cancer), and A549 (lung cancer) cells were maintained in RPMI medium while HCT116 (colon cancer), HepG2 (liver cancer), U87, U373 (glioblastoma), and HeLa (cervical cancer) were maintained in DMEM supplemented with 10% FBS and 1% penicillin/streptomycin (Sigma Aldrich, Missouri, USA). Normal human fibroblast (F180) cells were maintained in DMEM supplemented with 15% FBS. Normal human mammary epithelial cell line (HME1) were maintained in DMEM/F-12 medium supplemented with 10% FBS. All incubations were done at 37° C. in a humidified atmosphere of 5% CO2. All cell lines were authenticated by short tandem repeat (STR) profiling. The CDK4 knockout cells (provided by Dr. Samrein Ahmed, University of Sharjah, United Arab Emirates) were generated by CRISPR-CAS9 technology and were maintained in DMEM supplemented with 10% FBS.
(§2) The cytotoxic effects of HH32 and HH33 compounds were evaluated at various concentrations ranging from 0.0001 to 100 μM by sulphrhodamine-B (SRB) assay as described previously. The anti-proliferative activity was expressed as growth inhibitory concentration (IC50) values, which were calculated by the sigmoidal dose-response curve fitting method using Graph pad prism 6 software (GraphPad Software, San Diego, CA, USA).

U373 = test: SRB cytotoxicity assay, U373; type: cell-based
Text: as §1, §2

F-180 = test: SRB cytotoxicity assay, normal fibroblast F-180; type: cell-based, human; details: F-180 normal fibroblast, mean ± SEM
Text: as §1, §2

MCF7 cells = test: Metabolic analysis by GC-MS; type: cell-based
Procedure: The release of different metabolites following HH32 and HH33 treatment on MCF7 cells was detected using Gas Chromatography-Mass Spectrometry (GC-MS) (Shimadzu, Kyoto, Japan) as was described previously. GC-MS analysis was performed using a QP2010 gas chromatography-mass spectrometer (GC-2010 coupled with a GC-MS QP-2010 Ultra) equipped with an auto-sampler (AOC-20i+s) from Shimadzu (Tokyo, Japan), using Rtx-5 ms column (30 m length×0.25 mm inner diameter x 0.25 μm film thickness; Restek, Bellefonte, PA, USA). Helium (99.9% purity) was used as the carrier gas with the column flow rate of 1 mL/min. Data collection and analysis were performed using MSD Enhanced Chemstation software (Shimadzu, Kyoto, Japan). GC total ion chromatograms (TIC) and fragmentation patterns of the compound were identified using the NIST/EPA/NIH Mass Spectral Library (NIST 14).
Preprocessing and data analysis were performed using an in-house R script. Only compounds registered in Human Metabolome Database (HMDB 4.0) were considered for further analysis. Compounds with more than 70% of missing values were considered unreliable and therefore excluded. Probabilistic Quotient Normalization was used to normalize data due to dilution effects in the extraction procedure. Missing metabolite measurements were imputed using the k-nearest neighbor algorithm with k—3. […] To account for multiple testing, a false discovery rate (FDR) of <15% was applied to reduce the identification of false positives. FDRs were calculated using the q conversion algorithm in multiple comparisons. Principal component analysis (PCA) was used to visualize the metabolomic data. Data were mean-centered and scaled to unit variance before PCA.

[2] = test system: eight tested cancer cell lines; test: SRB cytotoxicity assay, eight cancer cell lines; type: cell-based; details: for viability of the eight tested cancer cell lines: SRB, 0.0001 to 100 μM; for selectivity index compared with doxorubicin: cancer cell lines versus normal cells
Text: as §1, §2

HepG2 = test: SRB cytotoxicity assay, HepG2; type: cell-based
Text: as §1, §2

[3] = test system: MCF7, HCT-116, HeLa and A549 cells; test: Western blot protein expression analysis; type: cell-based; details: for cyclin E, cyclin D1 and CDK2 levels: G1-S phase transition proteins; for phospho-Rb (ser249): HCT116 and HeLa cells; for level of p-H2Ax (y-H2Ax): MCF7, HeLa, HCT116, and A549 cells, 24 h; for cleavage of caspase-8: all cell lines; for ATR/Chk1 signaling: four cell lines
Procedure: The protein expression analysis was done after treatment with […] of HH32 and HH33 compounds for 24 hours by western blot. Cell lysates were prepared using lysis buffer containing 20% SDS, glycerol, 1M Tris (pH 6.8) and supplemented with protease and phosphatase inhibitors (Sigma Aldrich, Missouri, USA). The proteins were separated by SDS-PAGE and transblotted into nitrocellulose membrane (Biorad, Hercules, CA, USA). Membrane were incubated overnight at 4° C. with the following primary antibodies: 7H2AX, H2Ax, p21, CDC2, CDC25c, cyclin B, c-Myc, Bid, ATM, p-ATM, ATR, p-ATR, Chk1, p-Chk1, Chk2, p-Chk2, caspase 9, caspase 8, pRb (Ser807/811) (Cell Signaling Technology, Massachusetts, USA), p53, cyclin A, cyclin E, cyclin D1, CDK2, Rb, pRb (Ser249) (Santa Cruz Biotech, Texas, USA) and β-actin (Sigma Aldrich, Missouri, USA). Membranes were then incubated with respective mouse/rabbit secondary antibody (Cell Signaling Technology, Massachusetts, USA) for 1 hour at room temperature and detected by enhanced chemiluminescence (ECL) (Biorad, Hercules, CA, USA) method using Chemi Doc imaging system (Biorad, Hercules, CA, USA). The protein bands were quantified using Image lab™ software (Biorad, Hercules, CA, USA).

Compound | late apoptotic/dead cells (Annexin V+/PI+) ([1]; HCT-116 cells) | early apoptotic cell population (Annexin V+/PI-) ([1]; four cell lines) | Selectivity index (U87; F180 versus U87) | Selectivity index (U87; HME1 versus U87) | IC50 (U87) | Selectivity index (U373; F180 versus U373) | Selectivity index (U373; HME1 versus U373) | IC50 (F-180) | viability of the eight tested cancer cell lines [2] | selectivity index compared with doxorubicin [2] | Selectivity index (HepG2; F180 versus HepG2) | Selectivity index (HepG2; HME1 versus HepG2) | cyclin E, cyclin D1 and CDK2 levels [3] | phospho-Rb (ser249) [3] | phospho-Rb (ser807/811) ([3]; HCT-116) | expression of p53 and p21 ([3]; HeLa cells) | phospho-Rb (ser807/811) ([3]; HeLa cells) | expression of p53 and p21 ([3]; MCF7, HCT-116 and A549 cells) | phosphorylation status of ATM and Chk2 ([3]; MCF7, HCT-116 and A549 cells) | level of p-H2Ax (y-H2Ax) ([3]; 0.5 and 1 μM) | also measured
COC(=O)c1cc(NC2=NC(=O)C(=Cc3ccc(C)cc3)S2)ccc1OC(C)=O [HH32, Methyl 2-acetoxy-5-[(5-(4-methylbenzylidene)-4 (H)-oxo-1,3-thiazol-2-yl)-amino]benzoate] | elevated | no sign of early apoptosis induction | 2.04 | 4.1 | 6.53 ± 0.09 µM | 0.45 | 0.9 | 13.3 ± 0.38 µM | remarkable concentration-dependent decrease | superior in most of cancer cell lines than doxorubicin | 5.36 | 10.8 | slightly changed | increased | reduced | reduced | increased | substantially increased | increased significantly | marked elevation | IC50 (U373; U373, SRB, mean ± SEM): 29.38 ± 0.08 µM; Guanosine levels (MCF7 cells; vs untreated cells): altered; IC50 (HepG2; HepG2, SRB, mean ± SEM): 2.49 ± 0.11 µM; total c-Myc protein level ([3]; 1 μM, MCF7 and HCT-116 cells): downregulation; phosphorylation status of ATM and Chk2 ([3]; HeLa cells): increased significantly; cleavage of caspase-8 [3]: cleaved; ATR/Chk1 signaling [3]: activate
COC(=O)c1cc(NC2=NC(=O)C(=Cc3ccc(N(C)C)cc3)S2)ccc1OC(C)=O [HH33, Methyl 2-acetoxy-5-[(5-(4-dimethylaminobenzylidene)-4 (H)-oxo-1,3-thiazol-2-yl)-amino]benzoate] | elevated | increased | 3.8 | 9 | 1.03 ± 0.11 µM | 0.17 | 0.4 | 3.91 ± 0.43 µM | remarkable concentration-dependent decrease | superior in most of cancer cell lines than doxorubicin | 10.3 | 24 | slightly changed | increased | reduced | reduced | increased | substantially increased | increased significantly | marked elevation | late apoptotic/dead cells (Annexin V+/PI+) ([1]; four cell lines, with increasing concentration): increased; increase of palmitic acid (MCF7 cells): 20%; reduction of 1-Monopalmitin level (MCF7 cells; compared to control cells): 4.5 fold; level of 1-Monopalmitin (MCF7 cells; vs untreated cells): significant decreased; level of Adenosine (MCF7 cells; vs untreated cells): significant decreased; also recorded: significant reduction; level of Decanoic Acid (MCF7 cells; vs untreated cells): significant decreased; also recorded: reduction; total c-Myc protein level ([3]; 0.5 and 1 μM, four cancer cell lines): decreased; cleavage of caspase-9 ([3]; MCF7, HeLa and A549 cells): increase; cleavage of caspase-8 [3]: cleaved; reducing expression of G2/M progression proteins (cyclin A, cyclin B, CDC25c and CDC2/CDK1) ([3]; compared with HH32): more effective than HH32; ATR/Chk1 signaling [3]: activate
